PMC5513037, “Examining the influence of specificity ligands and ATP-competitive ligands on the overall effectiveness of bivalent kinase inhibitors” (Proteome Science, 2017)

How the values were obtained:
Assay in all cases: KAM-matrix competition in K562 lysate;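 on 0.001 uM KAM: median log10 fold change of treatment over DMSO control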;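 on 0.01 uM KAM: median log10 fold change of treatment over DMSO control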;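 on 0.1 uM KAM: median log10 fold change of treatment over DMSO control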;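 on 1 uM KAM: median log10 fold change of treatment over DMSO control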;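 on 10 uM KAM: median log10 fold change of treatment over DMSO control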
Type in all cases: binding
ACVR2B = biological target: T1, ACVR2B (Homo sapiens, UniProt Q13705);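 on 0.001 uM KAM: median log10 fold change of treatment over DMSO control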;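 on 0.01 uM KAM: median log10 fold change of treatment over DMSO control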;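 on 0.1 uM KAM: median log10 fold change of treatment over DMSO control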;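 on 1 uM KAM: median log10 fold change of treatment over DMSO control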;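 on 10 uM KAM: median log10 fold change of treatment over DMSO control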
T1 construct: endogenous in cells; host or cells: K562 cell lysate
T1 sequence (Q13705 19-512): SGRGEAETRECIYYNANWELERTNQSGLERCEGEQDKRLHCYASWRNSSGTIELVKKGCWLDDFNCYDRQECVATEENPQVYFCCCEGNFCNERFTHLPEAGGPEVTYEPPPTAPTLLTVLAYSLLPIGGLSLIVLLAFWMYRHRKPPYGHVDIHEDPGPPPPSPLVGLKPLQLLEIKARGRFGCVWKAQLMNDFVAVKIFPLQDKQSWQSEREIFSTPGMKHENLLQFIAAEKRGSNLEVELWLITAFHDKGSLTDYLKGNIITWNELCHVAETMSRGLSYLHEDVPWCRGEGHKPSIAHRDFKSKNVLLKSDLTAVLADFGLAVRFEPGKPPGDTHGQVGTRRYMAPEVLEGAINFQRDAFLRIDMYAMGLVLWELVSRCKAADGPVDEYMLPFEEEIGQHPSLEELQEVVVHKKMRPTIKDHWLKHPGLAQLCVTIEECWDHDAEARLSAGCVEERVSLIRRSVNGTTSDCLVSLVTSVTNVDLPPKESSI
Experimental: (§1) Supplement 12953_2017_125_MOESM1_ESM.zip/MS_Supp Info.xlsx, sheet "KAM" | column: 10 uM KAM; 1 uM KAM; 0.1 uM KAM; 0.01 uM KAM; 0.001 uM KAM; RB50

CLK2 = biological target: T2, CLK2 (Homo sapiens, UniProt P49760);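 on 0.001 uM KAM: median log10 fold change of treatment over DMSO control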;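 on 0.01 uM KAM: median log10 fold change of treatment over DMSO control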;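 on 0.1 uM KAM: median log10 fold change of treatment over DMSO control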;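 on 1 uM KAM: median log10 fold change of treatment over DMSO control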;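 on 10 uM KAM: median log10 fold change of treatment over DMSO control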
T2 construct: endogenous in cells; host or cells: K562
T2 sequence (P49760 whole entry): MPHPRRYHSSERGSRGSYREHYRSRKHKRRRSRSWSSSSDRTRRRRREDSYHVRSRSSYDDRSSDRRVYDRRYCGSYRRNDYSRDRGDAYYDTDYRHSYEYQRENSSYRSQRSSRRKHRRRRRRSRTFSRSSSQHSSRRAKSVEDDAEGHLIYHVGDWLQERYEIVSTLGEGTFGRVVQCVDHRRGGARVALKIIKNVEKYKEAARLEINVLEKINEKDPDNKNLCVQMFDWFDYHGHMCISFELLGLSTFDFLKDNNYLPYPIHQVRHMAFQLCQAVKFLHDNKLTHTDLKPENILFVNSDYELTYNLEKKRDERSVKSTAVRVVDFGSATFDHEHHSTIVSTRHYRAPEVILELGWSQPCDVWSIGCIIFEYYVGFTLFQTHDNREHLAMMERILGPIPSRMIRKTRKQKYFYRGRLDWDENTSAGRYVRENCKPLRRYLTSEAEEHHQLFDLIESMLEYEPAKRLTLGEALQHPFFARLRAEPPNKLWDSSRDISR
Experimental: as §1

MAPK14 = biological target: T3, MAPK14 (Homo sapiens, UniProt Q16539);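 on 0.001 uM KAM: median log10 fold change of treatment over DMSO control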;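 on 0.01 uM KAM: median log10 fold change of treatment over DMSO control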;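 on 0.1 uM KAM: median log10 fold change of treatment over DMSO control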;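 on 1 uM KAM: median log10 fold change of treatment over DMSO control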;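 on 10 uM KAM: median log10 fold change of treatment over DMSO control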
T3 construct: endogenous in cells; host or cells: K562
T3 sequence (Q16539 whole entry): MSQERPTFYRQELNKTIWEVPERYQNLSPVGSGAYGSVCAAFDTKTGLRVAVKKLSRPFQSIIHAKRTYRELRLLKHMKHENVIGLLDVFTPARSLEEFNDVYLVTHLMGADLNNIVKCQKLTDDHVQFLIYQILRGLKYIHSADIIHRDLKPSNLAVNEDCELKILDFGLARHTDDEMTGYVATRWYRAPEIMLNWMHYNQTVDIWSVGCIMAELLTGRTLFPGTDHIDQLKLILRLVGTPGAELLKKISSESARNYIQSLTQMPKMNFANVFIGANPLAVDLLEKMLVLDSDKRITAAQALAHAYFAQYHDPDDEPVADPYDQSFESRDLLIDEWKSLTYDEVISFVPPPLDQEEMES
Experimental: as §1

NME3 = biological target: T4, NME3 (Homo sapiens, UniProt Q13232);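 on 0.001 uM KAM: median log10 fold change of treatment over DMSO control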;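 on 0.01 uM KAM: median log10 fold change of treatment over DMSO control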;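 on 0.1 uM KAM: median log10 fold change of treatment over DMSO control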;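 on 1 uM KAM: median log10 fold change of treatment over DMSO control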;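 on 10 uM KAM: median log10 fold change of treatment over DMSO control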
T4 construct: endogenous in cells; host or cells: K562
T4 sequence (Q13232 1-169): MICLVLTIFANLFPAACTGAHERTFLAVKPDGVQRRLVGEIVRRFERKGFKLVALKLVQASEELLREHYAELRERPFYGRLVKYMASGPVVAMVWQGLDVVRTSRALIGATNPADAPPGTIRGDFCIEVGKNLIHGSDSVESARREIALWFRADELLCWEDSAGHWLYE
Experimental: as §1

NME7 = biological target: T5, NME7 (Homo sapiens, UniProt Q9Y5B8);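 on 0.001 uM KAM: median log10 fold change of treatment over DMSO control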;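 on 0.01 uM KAM: median log10 fold change of treatment over DMSO control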;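 on 0.1 uM KAM: median log10 fold change of treatment over DMSO control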;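 on 1 uM KAM: median log10 fold change of treatment over DMSO control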;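 on 10 uM KAM: median log10 fold change of treatment over DMSO control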
T5 construct: endogenous in cells; host or cells: K562
T5 sequence (Q9Y5B8 1-376): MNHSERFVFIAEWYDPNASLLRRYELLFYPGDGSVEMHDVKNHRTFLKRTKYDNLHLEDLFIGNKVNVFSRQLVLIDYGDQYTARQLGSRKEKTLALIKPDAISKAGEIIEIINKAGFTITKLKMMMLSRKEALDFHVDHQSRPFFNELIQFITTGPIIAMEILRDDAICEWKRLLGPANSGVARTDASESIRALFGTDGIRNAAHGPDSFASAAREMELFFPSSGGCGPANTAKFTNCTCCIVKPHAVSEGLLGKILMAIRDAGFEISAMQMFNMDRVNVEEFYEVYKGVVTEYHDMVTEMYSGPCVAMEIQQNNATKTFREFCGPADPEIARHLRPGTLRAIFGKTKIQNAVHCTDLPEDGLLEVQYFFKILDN
Experimental: as §1

PIK3R4 = biological target: T6, PIK3R4 (Homo sapiens, UniProt Q99570);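 on 0.001 uM KAM: median log10 fold change of treatment over DMSO control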;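 on 0.01 uM KAM: median log10 fold change of treatment over DMSO control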;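 on 0.1 uM KAM: median log10 fold change of treatment over DMSO control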;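 on 1 uM KAM: median log10 fold change of treatment over DMSO control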;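 on 10 uM KAM: median log10 fold change of treatment over DMSO control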
T6 construct: endogenous in cells; host or cells: K562
T6 sequence (Q99570 2-1358 limits assumed): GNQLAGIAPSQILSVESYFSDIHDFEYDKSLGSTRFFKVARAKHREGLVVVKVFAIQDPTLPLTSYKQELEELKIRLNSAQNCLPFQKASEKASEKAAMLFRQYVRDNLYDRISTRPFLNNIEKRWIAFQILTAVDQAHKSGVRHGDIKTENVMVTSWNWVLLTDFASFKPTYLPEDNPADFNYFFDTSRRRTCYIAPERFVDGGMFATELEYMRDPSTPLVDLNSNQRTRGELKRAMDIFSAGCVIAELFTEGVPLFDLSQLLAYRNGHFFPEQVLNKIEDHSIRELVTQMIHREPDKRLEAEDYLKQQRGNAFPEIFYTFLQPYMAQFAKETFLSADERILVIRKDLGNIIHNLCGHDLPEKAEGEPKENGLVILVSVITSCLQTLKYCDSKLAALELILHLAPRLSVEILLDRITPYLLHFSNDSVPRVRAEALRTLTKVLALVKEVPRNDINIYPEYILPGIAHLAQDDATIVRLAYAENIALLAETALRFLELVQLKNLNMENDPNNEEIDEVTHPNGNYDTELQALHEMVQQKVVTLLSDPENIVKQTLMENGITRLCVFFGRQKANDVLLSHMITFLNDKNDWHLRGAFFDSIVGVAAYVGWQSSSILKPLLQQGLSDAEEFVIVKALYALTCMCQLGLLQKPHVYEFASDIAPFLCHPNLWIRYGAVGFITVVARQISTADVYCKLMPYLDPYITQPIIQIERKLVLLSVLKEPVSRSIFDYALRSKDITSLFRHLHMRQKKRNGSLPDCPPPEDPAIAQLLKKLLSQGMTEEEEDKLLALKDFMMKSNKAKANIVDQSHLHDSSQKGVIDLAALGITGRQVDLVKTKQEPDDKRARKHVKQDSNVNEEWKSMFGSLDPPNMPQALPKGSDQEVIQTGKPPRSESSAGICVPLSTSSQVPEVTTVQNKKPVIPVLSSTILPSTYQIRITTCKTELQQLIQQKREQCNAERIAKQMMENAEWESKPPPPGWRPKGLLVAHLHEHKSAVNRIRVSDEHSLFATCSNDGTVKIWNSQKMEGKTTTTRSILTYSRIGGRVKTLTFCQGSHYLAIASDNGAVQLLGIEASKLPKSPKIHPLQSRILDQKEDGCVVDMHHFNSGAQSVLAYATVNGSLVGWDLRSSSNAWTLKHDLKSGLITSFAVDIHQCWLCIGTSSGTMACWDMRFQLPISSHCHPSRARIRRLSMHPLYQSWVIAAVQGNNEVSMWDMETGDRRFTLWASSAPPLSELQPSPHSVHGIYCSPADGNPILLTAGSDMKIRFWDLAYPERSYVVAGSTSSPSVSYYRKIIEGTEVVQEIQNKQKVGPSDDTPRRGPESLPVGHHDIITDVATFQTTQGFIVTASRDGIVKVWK
T6 sequence (Q8NEB9 whole entry partner): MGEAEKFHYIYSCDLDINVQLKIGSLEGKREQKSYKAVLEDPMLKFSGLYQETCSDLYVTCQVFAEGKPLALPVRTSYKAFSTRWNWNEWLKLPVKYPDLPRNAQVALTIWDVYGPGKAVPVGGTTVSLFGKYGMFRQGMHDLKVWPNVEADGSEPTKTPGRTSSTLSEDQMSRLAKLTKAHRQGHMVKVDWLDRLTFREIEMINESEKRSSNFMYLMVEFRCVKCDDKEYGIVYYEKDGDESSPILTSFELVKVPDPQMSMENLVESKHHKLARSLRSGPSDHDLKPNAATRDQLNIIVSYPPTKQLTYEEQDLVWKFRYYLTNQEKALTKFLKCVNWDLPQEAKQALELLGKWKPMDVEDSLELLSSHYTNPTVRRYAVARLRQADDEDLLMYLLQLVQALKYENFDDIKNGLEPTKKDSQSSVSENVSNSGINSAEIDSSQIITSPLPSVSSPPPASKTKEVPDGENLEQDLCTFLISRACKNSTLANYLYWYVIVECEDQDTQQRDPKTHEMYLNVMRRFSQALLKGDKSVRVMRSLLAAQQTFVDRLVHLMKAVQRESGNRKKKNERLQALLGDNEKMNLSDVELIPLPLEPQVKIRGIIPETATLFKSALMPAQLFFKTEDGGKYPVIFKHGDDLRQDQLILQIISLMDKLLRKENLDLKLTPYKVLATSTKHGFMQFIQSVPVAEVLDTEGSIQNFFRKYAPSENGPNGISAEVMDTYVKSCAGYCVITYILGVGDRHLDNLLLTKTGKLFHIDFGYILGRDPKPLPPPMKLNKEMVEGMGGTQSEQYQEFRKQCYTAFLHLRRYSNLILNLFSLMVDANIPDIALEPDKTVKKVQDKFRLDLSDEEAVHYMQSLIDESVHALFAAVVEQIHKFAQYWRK
Experimental: as §1

TBK1 = biological target: T7, TBK1 (Homo sapiens, UniProt Q9UHD2)
T7 construct: endogenous in cells; host or cells: K562
T7 sequence (Q9UHD2 1-729): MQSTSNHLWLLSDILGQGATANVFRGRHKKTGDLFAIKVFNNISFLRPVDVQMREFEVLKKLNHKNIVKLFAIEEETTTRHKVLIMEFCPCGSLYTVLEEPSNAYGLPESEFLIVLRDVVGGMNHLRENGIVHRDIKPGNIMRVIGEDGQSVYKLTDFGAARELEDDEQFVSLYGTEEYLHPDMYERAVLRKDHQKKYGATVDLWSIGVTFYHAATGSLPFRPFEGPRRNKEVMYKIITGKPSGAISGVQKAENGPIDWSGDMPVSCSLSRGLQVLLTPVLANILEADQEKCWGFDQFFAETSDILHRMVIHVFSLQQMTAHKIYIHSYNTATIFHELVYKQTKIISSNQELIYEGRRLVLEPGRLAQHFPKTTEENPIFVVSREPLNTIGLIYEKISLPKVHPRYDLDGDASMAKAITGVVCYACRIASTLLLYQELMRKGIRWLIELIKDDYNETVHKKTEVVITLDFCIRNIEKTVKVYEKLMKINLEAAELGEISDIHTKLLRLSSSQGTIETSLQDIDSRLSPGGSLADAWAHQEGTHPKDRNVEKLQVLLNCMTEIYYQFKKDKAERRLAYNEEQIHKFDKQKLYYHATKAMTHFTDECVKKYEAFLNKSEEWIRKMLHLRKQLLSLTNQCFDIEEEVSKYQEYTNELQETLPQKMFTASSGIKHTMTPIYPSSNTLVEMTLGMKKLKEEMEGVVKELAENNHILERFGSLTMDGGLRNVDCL
Experimental: as §1

[1] = KAM 0.001-10 uM, read-out: RB50 (the source's name)

For `N#CCc1ccc(Nc2nc(NCCCN)cc(Nc3cc(C4CC4)[nH]n3)n2)cc1` [KAM], the IC50 (ACVR2B; [1]) was > 10 µM, the “0.001 uM KAM” value (ACVR2B; relative to 0 uM KAM = 0) was 0.02766 and the “0.01 uM KAM” value (ACVR2B; relative to 0 uM KAM = 0) was -0.009918. The “0.1 uM KAM” value (ACVR2B; relative to 0 uM KAM = 0) was -0.09138, the “1 uM KAM” value (ACVR2B; relative to 0 uM KAM = 0) was -0.2794 and the “10 uM KAM” value (ACVR2B; relative to 0 uM KAM = 0) was -0.2958. The IC50 (CLK2; [1]) was > 10 µM, the “0.001 uM KAM” value (CLK2; relative to 0 uM KAM = 0) was -0.009153 and the “0.01 uM KAM” value (CLK2; relative to 0 uM KAM = 0) was 0.05043. The “0.1 uM KAM” value (CLK2; relative to 0 uM KAM = 0) was -0.05281, the “1 uM KAM” value (CLK2; relative to 0 uM KAM = 0) was -0.09929 and the “10 uM KAM” value (CLK2; relative to 0 uM KAM = 0) was -0.1362. The IC50 (MAPK14; [1]) was > 10 µM, the “0.001 uM KAM” value (MAPK14; relative to 0 uM KAM = 0) was -0.03046 and the “0.01 uM KAM” value (MAPK14; relative to 0 uM KAM = 0) was 0.03223. For the same compound, the “0.1 uM KAM” value (MAPK14; relative to 0 uM KAM = 0) was 0.1026, the “1 uM KAM” value (MAPK14; relative to 0 uM KAM = 0) was 0.08115 and the “10 uM KAM” value (MAPK14; relative to 0 uM KAM = 0) was 0.173. The IC50 (NME3; [1]) was > 10 µM, the “0.001 uM KAM” value (NME3; relative to 0 uM KAM = 0) was -0.01588 and the “0.01 uM KAM” value (NME3; relative to 0 uM KAM = 0) was -0.01222. The “0.1 uM KAM” value (NME3; relative to 0 uM KAM = 0) was -0.05319, the “1 uM KAM” value (NME3; relative to 0 uM KAM = 0) was 0.05076 and the “10 uM KAM” value (NME3; relative to 0 uM KAM = 0) was 0.01706. For the same compound, the IC50 (NME7; [1]) was > 10 µM, the “0.001 uM KAM” value (NME7; relative to 0 uM KAM = 0) was -0.02057 and the “0.01 uM KAM” value (NME7; relative to 0 uM KAM = 0) was -0.007814. For the same compound, the “0.1 uM KAM” value (NME7; relative to 0 uM KAM = 0) was 0.03797, the “1 uM KAM” value (NME7; relative to 0 uM KAM = 0) was 0.05362 and the “10 uM KAM” value (NME7; relative to 0 uM KAM = 0) was 0.03977. For the same compound, the IC50 (PIK3R4; [1]) was > 10 µM, the “0.001 uM KAM” value (PIK3R4; relative to 0 uM KAM = 0) was -0.04609 and the “0.01 uM KAM” value (PIK3R4; relative to 0 uM KAM = 0) was 0.02295. For the same compound, the “0.1 uM KAM” value (PIK3R4; relative to 0 uM KAM = 0) was -0.02338, the “1 uM KAM” value (PIK3R4; relative to 0 uM KAM = 0) was -0.03171 and the “10 uM KAM” value (PIK3R4; relative to 0 uM KAM = 0) was -0.01923. The “median Log10 fold change” value (TBK1; 0.001 uM KAM) was -0.0003533, the “median Log10 fold change” value (TBK1; 0.01 uM KAM) was 0.01133 and the “median Log10 fold change” value (TBK1; 0.1 uM KAM) was -0.1059. For the same compound, the “median Log10 fold change” value (TBK1; 1 uM KAM) was -0.5242, the “median Log10 fold change” value (TBK1; 10 uM KAM) was -0.6823 and the IC50 (TBK1; read-out: RB50 (the source's name)) was 0.452 µM.
